# Assays:
# [1] = system: A20 lymphoma cells; test: In vitro coagulation assay on A20 cells; assay type: cell-based, mouse
# [2] = system: HT29 human colorectal carcinoma; test: HT29 xenograft, tumor growth and necrosis after tTF constructs and Factor VIIa; assay type: in vivo, mouse
# [3] = system: C1300 Muγ mouse neuroblastoma; test: C1300 (Muγ) tumor model, coaguligand and tTF: thrombosis and anti-tumor effects; assay type: in vivo
# [4] = system: L540 human Hodgkin's tumors; test: Anti-VCAM-1•tTF coaguligand in L540 tumor-bearing mice; assay type: in vivo, mouse
# Protocol: Before coaguligand injection, tumors were viable, having a uniform morphology lacking regions of necrosis. […] Within four hours of coaguligand injection, 40-70% of blood vessels were thrombosed, despite the initial staining of only 20-30% of tumor blood vessels. The thrombosed vessels contained occlusive platelet aggregates, packed erythrocytes and fibrin. In several regions, the blood vessels had ruptured, spilling erythrocytes into the tumor interstitium.
# The drug was administered i.v. 3 times at intervals of 4 days.
# [5] = system: F9 sarcoma; test: F9 sarcoma mouse model, tumor tissue necrosis; assay type: in vivo; settings: tTF 4 μg, endotoxin 0.5 μg; three days; spontaneous necrosis 40-50%
# Protocol: 1×10^7 F9 sarcoma cells were injected subcutaneously into the right flank of balb/c nude mice. Subcutanous tumors were measured with a caliper in three perpendicular directions a, b, and c and volumes calculated according to the formula V=π/6×a×b×c. Treatment was initiated when subcutaneous tumors reached a size of 150 to 300 μl.
# Reagents were administered into the lateral tail vein.
# Mice were closely observed after treatment for clinical signs of toxicity and clinical status was documented at defined time points. Three days after treatment, mice were sacrificed and tumors were harvested. Paraffin embedded tissues were stained with hematoxilin and eosin (H&E). Tissue sections were analyzed on a light microscope by two independent investigators and histological findings were documented. Tumor sections with necrotic areas were scanned with a GS-700 imaging densitometer (Biorad, Hercules, Calif.) and areas of necrosis were calculated as % of total section area.
# [6] = system: L540 human Hodgkin's disease tumors; test: Treatment of L540rec tumor-bearing SCID mice with tTF and/or endotoxin, tumor tissue necrosis by densitometry; assay type: in vivo, mouse; settings: for % tumor necrosis: tTF alone (4 μg; 4 μg or 16 μg), no endotoxin, three days after i.v. treatment; for anti-tumor effect: tTF alone
# Protocol: For in vivo studies, a metastasizing mouse model for human Hodgkin's lymphoma was used. 1×10^7 L540rec cells were injected subcutaneously into the right flank of SCID mice resulting in a subcutaneous tumor with lymph node metastases in the regional lymph node stations. Subcutanous tumors were measured with a caliper in three perpendicular directions a, b, and c, and volumes calculated according to the formula V=π/6×a×b×c.
# Treatment was initiated when subcutaneous tumors reached a size of 150 to 300 μl. Reagents were administered into the lateral tail vein.
# (§1) Mice were closely observed after treatment for clinical signs of toxicity and clinical status was documented at defined time points (5 minutes, 10 minutes, 15 minutes, 30 minutes. 1 hour. 2 hours, 24 hours, 48 hours, 72 hours). Blood samples were taken from the tail vein at 1 hour, 2 hours and 24 hours to measure TNFα blood levels. Three days after treatment, the mice were anesthetized, blood samples were taken from the vena cava for coagulation tests, and an autopsy was performed to document any changes in gross pathology. Tumors, lymph node metastases and the major normal organs (heart, lung, brain, liver, kidney, colon, spleen, pancreas) were harvested and prepared for histological analysis.
# (§2) Tissue samples harvested at the time of autopsy were fixed in 3% NBF (normal buffered formalin) and embedded in paraffin wax. Tissue blocs were cut, dewaxed and stained with hematoxilin and eosin (H&E). Tissue sections were analyzed on a light microscope by two independent investigators and histological findings were documented. Tumor sections with necrotic areas were scanned with a GS-700 imaging densitometer (Biorad, Hercules, Calif.) and areas of necrosis were calculated as % of total section area. Statistical Analysis was performed using SPSS software (SPSS Science Software, Erkrath, Germany) applying the Mann-Whitney-U-test for ungrouped data.
# [7] = biological target: T1, immobilized tTF (Homo sapiens, UniProt P13726); test: Real time binding of tTF to immobilized tTF (surface plasmon resonance); settings: tTF 30 μg/ml alone or preincubated with endotoxin or factor VIIa
# T1 construct: amino acid 1-219 of the mature protein; made in house; host or cells: E. coli
# T1 sequence (P13726 33-251): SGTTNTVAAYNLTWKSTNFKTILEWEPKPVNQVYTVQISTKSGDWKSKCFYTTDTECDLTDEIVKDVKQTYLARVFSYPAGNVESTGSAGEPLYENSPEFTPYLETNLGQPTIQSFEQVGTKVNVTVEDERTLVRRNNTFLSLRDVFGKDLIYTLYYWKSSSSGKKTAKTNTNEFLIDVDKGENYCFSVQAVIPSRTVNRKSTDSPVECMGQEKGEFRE
# [8] = Clinical signs of toxicity and histology of normal organs in treated tumor-bearing mice; assay type: in vivo, mouse; settings: for Symptoms: tTF alone (4 μg i.v.), no endotoxin
# Protocol: as §1, §2
# [9] = system: 3LL mouse lung carcinoma; test: In vivo tumor thrombosis, 3LL; settings: large (>800 mm^3) tumors
# Source text: Tumor test systems were of four types: i) 3LL mouse lung carcinoma growing subcutaneously in C57BL/6 mice; ii) C1300 mouse neuroblastoma growing subcutaneously in BALB/c nu/nu mice; iii) HT29 human colorectal carcinoma growing subcutaneously in BALB/c nu/nu mice; and iv) C1300 Muγ mouse neuroblastoma growing subcutaneously in BALB/c nu/nu mice. The C1300 Muγ tumor is an interferon-y secreting transfectant derived from the C 1300 tumor (Watanabe et al., 1989).
# To establish tumors, 10^6 to 1.5×10^7 tumor cells were injected subcutaneously into the right anterior flank of the mice. When tumors had grown to various sizes, mice were randomly assigned to different study groups. […] Fab′, or bispecific antibody. Other mice received equivalent quantities IgG, Fab′ or bispecific antibody alone. The injections were performed slowly into one of the tail veins over approximately 45 seconds, usually followed by 200 μl of saline.
# Twenty-four hours after being injected with tTF or immunoglobulin-tTF conjugates, the mice were anesthetized with metophane and were exsanguinated by perfusion with heparinized saline. Tumors and normal tissues were excised and immediately fixed in 3% (v/v) formalin. Paraffin sections were cut and stained with hematoxylin and eosin. Blood vessels having open lumens containing erythrocytes and blood vessels containing thrombi were counted. […]
# [10] = system: 2F2B mouse endothelial cells; test: Binding of tTF to endothelial cells (FACS, cell bound coagulation assay); assay type: cell-based
# Protocol: Cells were washed and coagulation factor mix (as described above) was added. S2765 substrate was added and Factor Xa generation was measured as described above.
# 2F2B cells were stimulated with LPS (20 μg/ml) or TNFα (500 U/ml) for 4 h at 37° C. […] Fluorescent cells were detected on a flow cytometer (Becton Dickinson, San Jose, Calif.).
# [11] = system: TNFα; test: TNFα serum levels in treated animals; assay type: in vivo, mouse; settings: tTF containing no endotoxin (n=6), 1, 2 and 24 hours
# Protocol: as §1
# TNFα levels in serum were determined using the Quantikine-M kit (R&D Systems, Minneapolis, Minn.) according to the manufacturer's instructions.
substance,measurement,setting,value
"tTF: extracellular domain of the mature Tissue Factor protein (amino acid 1-219), recombinant truncated human Tissue Factor",increase in coagulation-inducing potency,[1]; 0.1 nM Factor VIIa,2-5 fold
same,plasma coagulation time,"[1]; 10^−10 M tTF219, 13.5 nM Factor VIIa",20 s
same,plasma coagulation time,"[1]; 10^−10 M tTF219, absence of Factor VIIa",60 s
same,concentration at which plasma coagulated in 50 seconds,[1]; localized on A20 cells via bispecific antibody B21-2/10H10,3 nM
same,time to visible fibrin strands,"[1]; tTF bound to A20 cells by B21-2/10H10, mouse plasma, untreated cells 164 seconds",36 s
same,duration of discontinued growth after treatment,[2]; large (1200 mm^3) tumors,about 7 days
same,average area of necrosis in tumor sections,"[2]; mouse, in vivo, iv",some necrosis
same,thrombosis of tumor vessels,[3]; 24 hours after injection of tTF219,practically all vessels in all regions of the tumor were thrombosed
same,thrombi or morphological abnormalities in normal organs,[3]; paraffin sections 30 minutes to 24 hours after administration,"neither thrombi, nor histological or morphological abnormalities were visible"
same,effect on tumor vessels,[3]; small (<500 mm^3) tumors,largely unaffected
same,tumor growth versus antibodies or saline alone,[3]; tTF alone or mixed with control bispecific antibodies,grew significantly more slowly
same,control reagents that caused thrombosis,[4]; equivalent quantities,None
same,effect on tumor growth,[4]; i.v. 3 times at intervals of 4 days,did not affect tumor growth
same,tumor tissue necrosis,[5],45%
same,% tumor necrosis,[6],0%
same,% tumor necrosis,[6]; listed as TTF,4%
same,% tumor necrosis,[6]; listed as endotoxin-free tTF,0%
same,anti-tumor effect,[6]; 4 μg to 16 μg,no anti-tumor effect
same,anti-tumor effect,[6]; 100 μg,anti-tumor effects begin to appear
same,binding to immobilized tTF,[7],did not bind to or homodimerize with immobilized tTF
same,histology of normal organs,"[8]; light microscopy, three days after treatment",No histological abnormalities were seen
same,Symptoms,[8]; listed as TTF,None
same,Symptoms,[8]; listed as endotoxin-free tTF,no clinical signs of toxicity
same,"tumor vessels thrombosed, average",[9],62%
same,binding to endothelial cells expressing tissue factor,[10],no binding
same,TNFα serum level,[11],could not be detected

# Reference: patent publication US20030211075A1 (priority 2001, published 2003)
